Experimental data as given in US11166941B2, “Synergistic nutritional compositions for enhancing ATP efficiency” (CELAGENEX RESEARCH (INDIA) PVT. LTD., priority 2020, dated 2021).

Experiments:
HepG2 cells = test: Estimation of cellular respiration by measuring cellular ATP levels (kit method) in HepG2 cells; assay type: cell-based, Human; conditions: for ATP enhancement fold / % ATP Enhancement: over control; for Cellular ATP Conc.: HepG2, 2 hours treatment
Description: The test substances were evaluated for their in vitro effect on cellular energy by measuring cellular ATP levels in human Hepatocytes (HepG2) cell line. In the given experimental conditions, treatment with the test substances improved cellular ATP levels in vitro [J Immunol Methods; 1986; 89: 271-277]; [Proc Nal Acad Sci USA; 2009; 106: 15651-15656].
For test substance ABC, the test substances were combined in the weight ratio of 1:0.05:0.01. A weight of about 10 mg of ABC was dissolved in 100 μl of DMSO and the volume was made up to 1 ml with DMEM-HG (Dulbecco's Modified Eagle Medium High Glucose). For individual test substances A, B and C, about 10 mg of all the test substances were weighed and separately dissolved with 100 μl of DMSO and volume was made up with DMEM-HG supplemented with 2% inactivated FBS to obtain a stock solution of 1 mg/ml concentration. The samples were further sterilized by 0.22 syringe filtration. Serial two-fold dilutions were prepared from the stock for carrying out further studies.
Cell line was cultured in DMEM-HG supplemented with 10% inactivated Fetal Bovine Serum (FBS), penicillin (100 IU/ml), streptomycin (100 μg/ml) and amphotericin B (5 μg/ml) in a humidified atmosphere of 5% CO2 at 37° C. until confluent. The cells were dissociated with TPVG solution (0.2% trypsin, 0.02% EDTA, 0.05% glucose in PBS). The stock cultures were grown in 25 cm^2 culture flasks and all experiments were carried out in 96 well microtitre plates (Tarsons India Pvt. Ltd., Kolkata, India).
HepG2 cells were trypsinized from stock culture flasks and the cell count was adjusted to 1.0×10^5 cells/ml to obtain a cell suspension that was seeded into a 6-well plate. After 24 hours, cell cultures achieved 70-80% confluency and were treated with different nontoxic concentrations of test substances. After 2 hours of treatment, the plate was washed with phosphate buffer saline. The cellular ATP level determination was performed according to the instructions given in the kit manual (SIGMA, #MAK190). At the end of the experiment, the optical density was read at 570 nm using microplate reader. From the absorbance values, the cellular ATP levels were estimated using kit protocol and the concentration of cellular ATP in treated groups were determined in comparison to the control groups.

[1] = system: HepG2 (Human Hepatocyte) cell line; test: In vitro cytotoxicity by MTT assay on HepG2 cell line; assay type: cell-based; conditions: 72 hours; for IC50 / inhibition at 62.5 µg/mL / inhibition at 125 µg/mL / inhibition at 250 µg/mL / inhibition at 500 µg/mL / inhibition at 1000 µg/mL: Homo sapiens; for IC50: read-out: CTC 50
Description: The in vitro cytotoxicity was performed on HepG2 (Human Hepatocyte) cell line to find a non-toxic concentration of the test substances by MTT assay and the potential of test substances to increase the cellular ATP levels was evaluated by kit method. For test substance ABC, the test substances were combined in the weight ratio of 1:0.05:0.01. A weight of about 10 mg of ABC was dissolved in 100 μl of DMSO and the volume was made up to 1 ml with DMEM-HG (Dulbecco's Modified Eagle Medium High Glucose). For individual test substances A, B and C, about 10 mg of all the test substances were weighed and separately dissolved with 100 μl of DMSO and volume was made up with DMEM-HG supplemented with 2% inactivated FBS to obtain a stock solution of 1 mg/ml concentration. The samples were further sterilized by 0.22 syringe filtration. Serial two-fold dilutions were prepared from the stock for carrying out further studies. Cell line was cultured in DMEM-HG supplemented with 10% inactivated Fetal Bovine Serum (FBS), penicillin (100 IU/ml), streptomycin (100 μg/ml) and amphotericin B (5 μg/ml) in a humidified atmosphere of 5% CO2 at 37° C. until confluent. The cells were dissociated with TPVG solution (0.2% trypsin, 0.02% EDTA, 0.05% glucose in PBS). The stock cultures were grown in 25 cm^2 culture flasks and all experiments were carried out in 96 well microtitre plates (Tarsons India Pvt. Ltd., Kolkata, India). The monolayer cell culture was trypsinized and the cell count was adjusted to 1.0×10^5 cells/ml using DMEM-HG containing 10% FBS. To each well of the 96 well microtitre plate, 0.1 ml of the diluted cell suspension was added. After 24 hours, when a partial monolayer was formed, the supernatant was flicked off, the monolayer was washed once with medium and 100 μl of different concentrations of test substances were added. The plate was then incubated at 37° C. for 72 hours in a 5% CO2 atmosphere, and microscopic examination was carried out with observations being noted at a 24-hour interval. After 72 hours of incubation, the drug solutions in the wells were discarded and 50 μl of MTT in PBS was added to each well. The plate was gently shaken and incubated for 3 hours at 37° C. in a 5% CO2 atmosphere. The supernatant was removed and 100 μl of 2-propanol was added and the plate was gently shaken to solubilize the formed formazan. The absorbance was measured using a microplate reader at a wavelength of 540 nm. The percentage growth inhibition was calculated using the standard formula. The concentration of test substances needed to inhibit the growth of the cell by 50% i.e., CTC50 values were generated from the dose-response curves.

[2] = cell studies, background statement; cited from earlier work
[3] = concentration inhibiting cell growth by 50%

**Q.** Which ATP enhancement fold (HepG2 cells; HepG2, 20 μM) does the source give for `OO` [Composition H2O2, H2O2, reference compound] here?
**A.** The ATP enhancement fold was 0.67 fold.

**Q.** And the “Cellular ATP Conc.” value (HepG2 cells; 20 μM)?
**A.** Its value is 1.97 ± 0.45 mM.

**Q.** For `O=C(O)CCCC[C@@H]1SC[C@@H]2NC(=O)N[C@@H]21` [D-Biotin (B), Biotin], which “enhancement of cellular ATP levels over the control (in words)” value (from here on “enhancement … over the control (in words)”) (HepG2 cells; HepG2, 500 μg/ml) is on record?
**A.** The value was “No significant enhancement”.

**Q.** What about the “% ATP Enhancement” value (HepG2 cells; HepG2, 500 μg/ml) of the same molecule?
**A.** The value was 22%.

**Q.** What about the ATP enhancement fold (HepG2 cells; HepG2, 500 μg/ml) of the same molecule?
**A.** The ATP enhancement fold was 1.11 fold.

**Q.** What about the “Cellular ATP Conc.” value (HepG2 cells; 500 μg/ml, listed as B) of the same molecule?
**A.** The value was 6.05 ± 0.33 mM.

**Q.** What about the “Cellular ATP Conc.” value (HepG2 cells; 500 μg/ml, listed as Biotin (B)) of the same molecule?
**A.** The value was 6.05 ± 0.33 mM.

**Q.** And the IC50 [1, 3]?
**A.** Its IC50 is > 1000 µg/mL.

**Q.** What about the inhibition at 62.5 µg/mL ([1]; test conc. 62.5 μg/ml) of the same molecule?
**A.** The inhibition at 62.5 µg/mL was 6.13 ± 3.48%.

**Q.** What about the inhibition at 125 µg/mL ([1]; test conc. 125 μg/ml) of the same molecule?
**A.** The inhibition at 125 µg/mL was 25.1 ± 0.81%.

**Q.** And the inhibition at 250 µg/mL ([1]; test conc. 250 μg/ml)?
**A.** The inhibition at 250 µg/mL was 31.2 ± 1.17%.

**Q.** And the inhibition at 500 µg/mL ([1]; test conc. 500 μg/ml)?
**A.** The inhibition at 500 µg/mL was 42.9 ± 1.29%.

**Q.** And the inhibition at 1000 µg/mL ([1]; test conc. 1000 μg/ml)?
**A.** Its inhibition at 1000 µg/mL is 47.6 ± 1.45%.

**Q.** What does the source list for `Oc1ccc(C=Cc2cc(O)cc(O)c2)cc1` [Resveratrol, reference compound]?
**A.** % ATP Enhancement (HepG2 cells; HepG2, 100 μg/ml): 13%; ATP enhancement fold (HepG2 cells; HepG2, 100 μg/ml): 1.09 fold; Cellular ATP Conc. (HepG2 cells; 100 μg/ml): 5.56 ± 0.37 mM

**Q.** Which “enhancement … over the control (in words)” value (HepG2 cells; HepG2, 500 μg/ml) does the source give for `O=C(O)CC(=O)C(=O)O` [Stabilized Oxaloacetate (A), Oxaloacetic acid] here?
**A.** Its value is “No significant enhancement”.

**Q.** What about the “% ATP Enhancement” value (HepG2 cells; HepG2, 500 μg/ml) of the same molecule?
**A.** The value was 10%.

**Q.** What about the ATP enhancement fold (HepG2 cells; HepG2, 500 μg/ml) of the same molecule?
**A.** The ATP enhancement fold was 1.09 fold.

**Q.** And the “Cellular ATP Conc.” value (HepG2 cells; 500 μg/ml)?
**A.** Its value is 5.42 ± 0.25 mM.

**Q.** And the “Cellular ATP Conc.” value (HepG2 cells; 500 μg/ml, listed as Oxaloacetic acid (A))?
**A.** The value was 5.42 ± 0.25 mM.

**Q.** And the IC50 [1, 3]?
**A.** Its IC50 is > 1000 µg/mL.

**Q.** And the inhibition at 62.5 µg/mL ([1]; test conc. 62.5 μg/ml)?
**A.** Its inhibition at 62.5 µg/mL is 10.7 ± 0.84%.

**Q.** And the inhibition at 125 µg/mL ([1]; test conc. 125 μg/ml)?
**A.** Its inhibition at 125 µg/mL is 16.6 ± 0.82%.

**Q.** What about the inhibition at 250 µg/mL ([1]; test conc. 250 μg/ml) of the same molecule?
**A.** The inhibition at 250 µg/mL was 23.8 ± 2.25%.

**Q.** And the inhibition at 500 µg/mL ([1]; test conc. 500 μg/ml)?
**A.** The inhibition at 500 µg/mL was 34.4 ± 2.2%.

**Q.** And the inhibition at 1000 µg/mL ([1]; test conc. 1000 μg/ml)?
**A.** Its inhibition at 1000 µg/mL is 40.4 ± 1.22%.

**Q.** For `O=C(O)CC(=O)C(=O)O` [oxaloacetate], which increase muscular endurance [2] is on record?
**A.** The increase muscular endurance was “up to 10%”.

**Q.** For “manganese (II) sulphate monohydrate [Manganese-Sulphate (C)]”, which “enhancement … over the control (in words)” value (HepG2 cells; HepG2, 500 μg/ml) is on record?
**A.** Its value is “No significant enhancement”.

**Q.** And the “% ATP Enhancement” value (HepG2 cells; HepG2, 500 μg/ml)?
**A.** The value was 00%.

**Q.** What about the ATP enhancement fold (HepG2 cells; HepG2, 500 μg/ml) of the same molecule?
**A.** The ATP enhancement fold was 1.00 fold.

**Q.** What about the “Cellular ATP Conc.” value (HepG2 cells; 500 μg/ml, listed as C, sulphate monohydrate) of the same molecule?
**A.** The value was 4.92 ± 0.13 mM.

**Q.** And the “Cellular ATP Conc.” value (HepG2 cells; 500 μg/ml, listed as Manganese sulphate (C), sulphate monohydrate)?
**A.** Its value is 4.92 ± 0.13 mM.

**Q.** What about the “CTC 50” value [1, 3] of the same molecule?
**A.** The value was 558.91 ± 6.22 µg/mL.

**Q.** And the “% Inhibition” value ([1]; test conc. 62.5 μg/ml)?
**A.** Its value is 30.00 ± 0.54%.

**Q.** What about the “% Inhibition” value ([1]; test conc. 125 μg/ml) of the same molecule?
**A.** The value was 35.54 ± 0.47%.

**Q.** And the “% Inhibition” value ([1]; test conc. 250 μg/ml)?
**A.** The value was 42.44 ± 0.81%.

**Q.** And the “% Inhibition” value ([1]; test conc. 500 μg/ml)?
**A.** The value was 48.75 ± 0.18%.

**Q.** And the “% Inhibition” value ([1]; test conc. 1000 μg/ml)?
**A.** The value was 59.35 ± 0.63%.
